# Reference: patent US10323036B2 (Nimbus Lakshmi, Inc., priority 2016, dated 2019)
# Where two headings read alike, the source gives them in different places.
# Molecular target: human TYK2 (JH2domain-pseudokinase) (Homo sapiens (Human), UniProt P29597)
# Assay: TYK2 JH2 Domain Binding Assay (KINOMEscan)
# [1] = Table 4, JH2 binding assay, read-out: JH2 Kd
# [2] = Table 5, Tyk2 JH2 Domain Binding Assay, read-out: JH2 Kd
# Sequence of human TYK2 (JH2domain-pseudokinase) (P29597 556-888): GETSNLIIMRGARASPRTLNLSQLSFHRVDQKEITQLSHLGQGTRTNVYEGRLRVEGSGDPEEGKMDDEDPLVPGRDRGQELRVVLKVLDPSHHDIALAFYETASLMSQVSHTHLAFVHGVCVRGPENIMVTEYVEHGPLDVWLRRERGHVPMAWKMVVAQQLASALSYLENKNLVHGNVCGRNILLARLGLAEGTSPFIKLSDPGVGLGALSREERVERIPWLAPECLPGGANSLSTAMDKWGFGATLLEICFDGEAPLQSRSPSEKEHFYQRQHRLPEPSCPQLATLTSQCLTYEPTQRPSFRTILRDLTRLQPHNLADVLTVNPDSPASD
Kd [1],Compound,other results
1 to 10 nM,"COc1c(F)cccc1Nc1cc(Nc2cc(C)c(F)cn2)nc2[nH]n(C)c(=O)c12 [Compound I-73, 4-((3-fluoro-2-methoxyphenyl)amino)-6-((5-fluoro-4-methylpyridin-2-yl)amino)-2-methyl-1,2-dihydro-3H-pyrazolo[3,4-b]pyridin-3-one]",
< 0.1 nM,"Cn1[nH]c2nc(Nc3cccc(C#N)n3)cc(Nc3ccccc3S(C)(=O)=O)c2c1=O [Compound I-112, 6-((2-methyl-4-((2-(methylsulfonyl)phenyl)amino)-3-oxo-2,3-dihydro-1H-pyrazolo[3,4-b]pyridin-6-yl)amino)picolinonitrile]",
1 to 10 nM,"COc1c(Cl)cccc1Nc1cc(Nc2ccc(C)nn2)nc2[nH]n(C)c(=O)c12 [Compound I-105, 4-((3-chloro-2-methoxyphenyl)amino)-2-methyl-6-((6-methylpyridazin-3-yl)amino)-1,2-dihydro-3H-pyrazolo[3,4-b]pyridin-3-one]",
> 10 nM,COc1c(C#N)cccc1Nc1cc(Nc2ccc(C#N)cn2)nc2[nH]n(C)c(=O)c12 [Compound I-41],
0.1 to 0.5 nM,"COc1c(Nc2cc(Nc3cccc(C(F)(F)F)n3)nc3[nH]n(C)c(=O)c23)cccc1-c1nnn(C)n1 [Compound I-60, 4-((2-methoxy-3-(2-methyl-2H-tetrazol-5-yl)phenyl)amino)-2-methyl-6-((6-(trifluoromethyl)pyridin-2-yl)amino)-1,2-dihydro-3H-pyrazolo[3,4-b]pyridin-3-one]",
> 10 nM,COc1c(C#N)cccc1Nc1cc(Nc2ccc(N3CCOCC3)cn2)nc2[nH]n(C)c(=O)c12 [Compound I-36],
0.5 to 1 nM,"COc1c(Cl)cccc1Nc1cc(Nc2ccc(C#N)cn2)nc2[nH]n(C)c(=O)c12 [Compound I-98, 6-((4-((3-chloro-2-methoxyphenyl)amino)-2-methyl-3-oxo-2,3-dihydro-1H-pyrazolo[3,4-b]pyridin-6-yl)amino)nicotinonitrile]",
1 to 10 nM,"Cc1ncc(Nc2cc(Nc3ccc(Cl)cc3S(C)(=O)=O)c3c(=O)n(C)[nH]c3n2)nc1C [Compound I-207, 4-((4-chloro-2-(methylsulfonyl)phenyl)amino)-6-((5,6-dimethylpyrazin-2-yl)amino)-2-methyl-1,2-dihydro-3H-pyrazolo[3,4-b]pyridin-3-one]",
0.1 to 0.5 nM,"Cn1[nH]c2nc(NC(=O)[C@H]3CC3(F)F)cc(Nc3ccc(C4CC4)cc3S(C)(=O)=O)c2c1=O [Compound I-238, (R)-N-(4-((4-cyclopropyl-2-(methylsulfonyl)phenyl)amino)-2-methyl-3-oxo-2,3-dihydro-1H-pyrazolo[3,4-b]pyridin-6-yl)-2,2-difluorocyclopropane-1-carboxamide]",
0.5 to 1 nM,"Cc1ccc(Nc2cc(Nc3ccc(Cl)cc3S(C)(=O)=O)c3c(=O)n(C)[nH]c3n2)nn1 [Compound I-157, 4-((4-chloro-2-(methylsulfonyl)phenyl)amino)-2-methyl-6-((6-methylpyridazin-3-yl)amino)-1,2-dihydro-3H-pyrazolo[3,4-b]pyridin-3-one]",
0.5 to 1 nM,"COc1c(Cl)cccc1Nc1cc(Nc2cnc(C(C)(C)OC)c(C#N)n2)nc2[nH]n(C)c(=O)c12 [Compound I-155, 6-((4-((3-chloro-2-methoxyphenyl)amino)-2-methyl-3-oxo-2,3-dihydro-1H-pyrazolo[3,4-b]pyridin-6-yl)amino)-3-(2-methoxypropan-2-yl)pyrazine-2-carbonitrile]",
> 10 nM,"COc1c(F)cccc1Nc1cc(Nc2ccc(N3CCCC3)cn2)nc2[nH]n(C)c(=O)c12 [Compound I-90, 4-((3-fluoro-2-methoxyphenyl)amino)-2-methyl-6-((5-(pyrrolidin-1-yl)pyridin-2-yl)amino)-1,2-dihydro-3H-pyrazolo[3,4-b]pyridin-3-one]",
1 to 10 nM,"COc1c(F)cccc1Nc1cc(Nc2ccc(C)cn2)nc2[nH]n(C)c(=O)c12 [Compound I-84, 4-((3-fluoro-2-methoxyphenyl)amino)-2-methyl-6-((5-methylpyridin-2-yl)amino)-1,2-dihydro-3H-pyrazolo[3,4-b]pyridin-3-one]",
< 0.1 nM,"COc1c(Nc2cc(Nc3cc(C#N)ncn3)nc3[nH]n(C)c(=O)c23)cccc1-c1ncn(C)n1 [Compound I-31, 6-((4-((2-methoxy-3-(1-methyl-1H-1,2,4-triazol-3-yl)phenyl)amino)-2-methyl-3-oxo-2,3-dihydro-1H-pyrazolo[3,4-b]pyridin-6-yl)amino)pyrimidine-4-carbonitrile]",
1 to 10 nM,COc1cc(CO)ccc1Nc1cc(NC(=O)C2CC2)nc2[nH]n(C)c(=O)c12 [Compound I-44],

# Second part, the compound before the results:
Compound,Kd [1],other results
"COc1c(Nc2cc(NC(=O)C3CC3)nc3[nH]n(C)c(=O)c23)cccc1-c1cnn(C)c1 [Compound I-55, N-(4-((2-methoxy-3-(1-methyl-1H-pyrazol-4-yl)phenyl)amino)-2-methyl-3-oxo-2,3-dihydro-1H-pyrazolo[3,4-b]pyridin-6-yl)cyclopropanecarboxamide]",0.5 to 1 nM,
COCc1ccc(Nc2cc(NC(=O)C3CC3)nc3[nH]n(C)c(=O)c23)c(N(C)S(C)(=O)=O)c1 [Compound I-218],< 0.1 nM,
"COc1c(Nc2cc(Nc3ccc(N4CCCCC4)cn3)nc3[nH]n(C)c(=O)c23)cccc1-c1ncn(C)n1 [Compound I-24, 4-((2-methoxy-3-(1-methyl-1H-1,2,4-triazol-3-yl)phenyl)amino)-2-methyl-6-((5-(piperidin-1-yl)pyridin-2-yl)amino)-1,2-dihydro-3H-pyrazolo[3,4-b]pyridin-3-one]",0.1 to 0.5 nM,
"COc1c(Nc2cc(Nc3ccc(C)nn3)nc3[nH]n(C)c(=O)c23)cccc1-c1ncn(C)n1 [Compound I-23, 4-((2-methoxy-3-(1-methyl-1H-1,2,4-triazol-3-yl)phenyl)amino)-2-methyl-6-((6-methylpyridazin-3-yl)amino)-1,2-dihydro-3H-pyrazolo[3,4-b]pyridin-3-one]",> 10 nM,
"CCNC(=O)c1ccc(Nc2cc(NC(=O)C3CC3)nc3[nH]n(C)c(=O)c23)c(OC)c1 [Compound I-114, 4-((6-(cyclopropanecarboxamido)-2-methyl-3-oxo-2,3-dihydro-1H-pyrazolo[3,4-b]pyridin-4-yl)amino)-N-ethyl-3-methoxybenzamide]",1 to 10 nM,
"CN(c1ccccc1Nc1cc(NC(=O)C2CC2)nc2[nH]n(C)c(=O)c12)S(C)(=O)=O [Compound I-129, N-(2-methyl-4-((2-(N-methylmethylsulfonamido)phenyl)amino)-3-oxo-2,3-dihydro-1H-pyrazolo[3,4-b]pyridin-6-yl)cyclopropanecarboxamide]",0.1 to 0.5 nM,
"COc1c(Nc2cc(Nc3ccc(N4CCOCC4)cn3)nc3[nH]n(C)c(=O)c23)cccc1-c1ncn(C)n1 [Compound I-20, 4-((2-methoxy-3-(1-methyl-1H-1,2,4-triazol-3-yl)phenyl)amino)-2-methyl-6-((5-morpholinopyridin-2-yl)amino)-1,2-dihydro-3H-pyrazolo[3,4-b]pyridin-3-one]",0.1 to 0.5 nM,
"Cn1[nH]c2nc(NC(=O)C3CC3)cc(Nc3ccccc3P(C)(C)=O)c2c1=O [Compound I-125, N-(4-((2-(dimethylphosphoryl)phenyl)amino)-2-methyl-3-oxo-2,3-dihydro-1H-pyrazolo[3,4-b]pyridin-6-yl)cyclopropanecarboxamide]",> 10 nM,
"COc1c(Nc2cc(Nc3cc(CO)ccn3)nc3[nH]n(C)c(=O)c23)cccc1-c1nnn(C)n1 [Compound I-6, 6-((4-(hydroxymethyl)pyridin-2-yl)amino)-4-((2-methoxy-3-(2-methyl-2H-tetrazol-5-yl)phenyl)amino)-2-methyl-1,2-dihydro-3H-pyrazolo[3,4-b]pyridin-3-one]",> 10 nM,
"CNc1nn(-c2cccc(-c3nnn(C)n3)c2OC)c2cc(NC(=O)C3CC3)ncc12 [XVI-3, N-(1-(2-methoxy-3-(2-methyl-2H-tetrazol-5-yl)phenyl)-3-(methylamino)-1H-pyrazolo[4,3-c]pyridin-6-yl)cyclopropanecarboxamide]",,"Kd [2]: > 100 nM; Kd (Tyk2 JH2 Domain Binding Assay, read-out: Kd): 7000 to 10000 nM"
COc1c(Nc2cc(NC(=O)C3CC3)nc3[nH]n(C)c(=O)c23)cccc1-c1noc(C)n1 [Compound I-131],0.1 to 0.5 nM,
"COc1c(Nc2cc(Nc3cc(C)c(F)cn3)nc3[nH]n(C)c(=O)c23)cccc1-c1ccn(C)n1 [Compound I-120, 6-((5-fluoro-4-methylpyridin-2-yl)amino)-4-((2-methoxy-3-(1-methyl-1H-pyrazol-3-yl)phenyl)amino)-2-methyl-1,2-dihydro-3H-pyrazolo[3,4-b]pyridin-3-one]",1 to 10 nM,
"COc1ccccc1Nc1cc(NC(=O)C2CC2)nc2[nH]n(C)c(=O)c12 [Compound I-61, N-(4-((2-methoxyphenyl)amino)-2-methyl-3-oxo-2,3-dihydro-1H-pyrazolo[3,4-b]pyridin-6-yl)cyclopropanecarboxamide]",1 to 10 nM,
"Cc1ccc(Nc2cc(NC(=O)C3CC3)nc3[nH]n(C)c(=O)c23)c(N(C)S(C)(=O)=O)c1 [Compound I-229, N-(2-methyl-4-((4-methyl-2-(N-methylmethylsulfonamido)phenyl)amino)-3-oxo-2,3-dihydro-1H-pyrazolo[3,4-b]pyridin-6-yl)cyclopropanecarboxamide]",< 0.1 nM,
COc1cc(C2CCC2)ccc1Nc1cc(NC(=O)C2CC2)nc2[nH]n(C)c(=O)c12 [Compound I-51],> 10 nM,
"CCc1ccc(Nc2cc(NC(=O)C3CC3)nc3[nH]n(C)c(=O)c23)c(N(C)S(C)(=O)=O)c1 [Compound I-217, N-(4-((4-ethyl-2-(N-methylmethylsulfonamido)phenyl)amino)-2-methyl-3-oxo-2,3-dihydro-1H-pyrazolo[3,4-b]pyridin-6-yl)cyclopropanecarboxamide]",< 0.1 nM,
"COc1cccnc1Nc1cc(NC(=O)C2CC2)nc2[nH]n(C)c(=O)c12 [Compound I-223, N-(4-((3-methoxypyridin-2-yl)amino)-2-methyl-3-oxo-2,3-dihydro-1H-pyrazolo[3,4-b]pyridin-6-yl)cyclopropanecarboxamide]",1 to 10 nM,
"COCc1ccnc(Nc2cc(Nc3cccc(-c4nnn(C)n4)c3OC)c(-c3ncc(Cl)s3)cn2)c1 [VIII-17, 5-(5-chlorothiazol-2-yl)-N4-(2-methoxy-3-(2-methyl-2H-tetrazol-5-yl)phenyl)-N2-(4-(methoxymethyl)pyridin-2-yl)pyridine-2,4-diamine]",,Kd [2]: 0.1 to 1 nM
